Test results: ChEMBL document CHEMBL4190368, “Synthesis and antimalarial evaluation of artesunate-polyamine and trioxolane-polyamine conjugates” (Eur J Med Chem, 2017)
pIC50: −log10 of the molar value.

How the values were obtained:
[1] = tested on: Plasmodium berghei; assay: Antiplasmodial activity against GFP-transfected Plasmodium berghei ANKA infected in NMRI mouse assessed as mouse survival at 50 mg/kg/day, ip for 4 days measured up to 30 days; assay type: functional
[2] = Selectivity index, ratio of IC50 for rat L6 cells to IC50 for chloroquine sensitive Plasmodium falciparum NF54; assay type: toxicity; details: L6 cells versus Plasmodium falciparum NF54, read-out: Ratio IC50
[3] = tested on: Plasmodium berghei; assay: Antiplasmodial activity against GFP-transfected Plasmodium berghei ANKA infected in NMRI mouse assessed as mouse survival at 50 mg/kg/day, po for 4 days measured up to 30 days; assay type: functional
[4] = tested on: L6; assay: Cytotoxicity in rat L6 cells assessed as reduction in cell viability incubated for 72 hrs by alamar blue dye based assay; details: L6, 72 h
[5] = tested on: Plasmodium falciparum; assay: Antiplasmodial activity against chloroquine sensitive Plasmodium falciparum NF54 assessed as reduction in [3H]-hypoxanthine incorporation incubated for 48 hrs by liquid scintillation counting method; assay type: functional, organism-based
[6] = tested on: Plasmodium berghei; assay: Antiplasmodial activity against GFP-transfected Plasmodium berghei ANKA infected in NMRI mouse assessed as reduction in parasitaemia at 50 mg/kg/day, ip for 4 days measured on 24 hrs after last dose by FACS analysis; assay type: functional; set-up: scale not given: the % may be the effect or the level left
[7] = tested on: Plasmodium berghei; assay: Antiplasmodial activity against GFP-transfected Plasmodium berghei ANKA infected in NMRI mouse assessed as reduction in parasitaemia at 100 mg/kg/day, po for 4 days measured on 24 hrs after last dose by FACS analysis; assay type: functional; set-up: scale not given: the % may be the effect or the level left

## C[C@H]1[C@H](OC(=O)CCC(=O)NCCCN(CCCCN(CCCNC(=O)CCC(=O)O[C@@H]2O[C@@H]3O[C@@]4(C)CC[C@H]5[C@H](C)CC[C@@H]([C@H]2C)[C@@]35OO4)C(=O)OC(C)(C)C)C(=O)OC(C)(C)C)O[C@@H]2O[C@@]3(C)CC[C@H]4[C@H](C)CC[C@@H]1[C@@]24OO3
[1]
  Survival: 30 days
[2]
  selectivity ratio: 30200
[3]
  Survival: 16 to 30 days
[4]
  pIC50: 4.92
[5]
  pIC50: 9.40
[6]
  Activity: 99.8%
[7]
  Activity: 95.7%
